Entries after “also recorded” stand apart in the source; their conditions may differ. Where two headings read alike, the source gives them in different places.
Legend:
SKOV3 cells = test: Cytotoxicity in α-enolase siRNA transfected SKOV3 cells; settings: data not shown
MDA-435 cells = test: cells; assay type: cell-based, human; settings: MDA-435 cells; for EC50: Homo sapiens, MDA435
Procedure: Similar tests utilizing α-enolase siRNA were performed on MDA-435 breast adenocarcinoma cells. Chemosensitivity to various drugs was determined for the MDA-435 cells as described above.

SW-480 cells = test: cells; assay type: cell-based, human; settings: Homo sapiens, SW480, SW-480 cells
Procedure: The colorectal adenocarcinoma cell line SW-480 was treated with α-enolase-directed siRNA using the procedures described above.

MCF-7 cells [1] = test: MTT cytotoxicity assay, MCF-7 cells transfected with α-enolase siRNA; assay type: cell-based, human; settings: MCF-7 cells
Procedure: For a typical siRNA transfection, 1 nmole of the annealed siRNA duplex was mixed with 1.4 ml of Opti-MEM reagent (Invitrogen). In another tube, […] of Oligofectamine reagent (Invitrogen, Carlsbad, Calif.) is mixed with […] of Opti-MEM. The two solutions are combined and mixed gently by inversion and incubated for 20 min. at RT. The resulting solution is added to the cultured cells drop by drop in a 10 cm dish (cells are approximately 40-50% confluent). The next day the transfected cells were trypsinized and seeded in 6 or 96-well plates and further incubated for the indicated amount of time (assay dependent) before further analysis.
To evaluate the effect of α-enolase depletion on the chemosensitivity of cells to cytotoxic agents, MTT assays were performed in breast adenocarcinoma MCF-7 cells transfected with α-enolase specific siRNAs. […] The predicted EC50 values (the effective dose of a compound responsible for a positive effect half-way between baseline and maximum net impact) for the α-enolase-depleted cells are shown in Table 3. Similarly, results using other chemotherapeutic drugs are also shown in the table indicating the sensitivity of breast cancer tissue to α-enolase depletion.

A549 cells [2] = test: MTT cytotoxicity assay, A549 cells transfected with α-enolase siRNA; settings: for EC50: Homo sapiens
Procedure: Small interfering RNA transfected cells were seeded in triplicate into 96-well plates at 5×10^3 cells/well 48 hrs post-transfection. The cells were incubated for an additional 16-24 hrs before they were exposed to increasing concentrations of cytotoxic drugs. […] Appropriate dilutions were made in the respective media for each cell line. Following addition of drugs, incubation was continued for an additional 72 hrs. Twenty-five ml of MTT dye (5 mg/ml) were added into each well and the plate was further incubated at 37° C. for 4 hrs. The dye was solubilized with 10% Triton X-100, 0.01 N HCl and further incubated at 37° C. in the dark for 30 min. Cell viability was determined by measure of absorption at 570 nm in a Wallac multiwell plate reader (PerkinElmer, Inc., Boston, Mass.). The averages of triplicate wells were plotted using the Prism software (GraphPad Software, Inc., San Diego, Calif.).
To investigate if α-enolase is broadly involved in mediating drug resistance to microtubule targeting agents, non-small cell lung cancer cell lines A549 and H460, respectively, were transfected with α-enolase siRNA and enolase expression and viability were assessed.

MCF-7 cells [3] = test: Clonogenic assay, MCF-7 cells; assay type: cell-based, human; settings: MCF-7 cells
Procedure: Utilizing a clonogenic assay generated additional information concerning cell viability after drug-resistant cells were exposed to siRNA and chemotherapeutics. […] Taxol or Vincristine was added at IC10 or IC50 concentrations determined from MTT experiments for MCF-7 cells. […] The cells were further incubated for an additional 7 days. At the end of the incubation, the cells were stained with addition of a 0.5% Methylene Blue solution in 50% ethanol for 15 min. at RT. The staining solution was then removed and plates were dried overnight. The plates were scanned and the stained colonies were solubilized in 0.1% SDS. The absorbance of the resulting solution was determined by spectrophotometry at 660 nm.

CaOV3 cells = test: MTT cytotoxicity assay, CaOV3 cells transfected with α-enolase RNAi; assay type: cell-based, human; settings: for EC50: Homo sapiens, 72 hours post transfection
Source text: These observations were expanded by targeting α-enolase in the ovarian cancer cell line, CaOV3.

H460 cells = test: MTT cytotoxicity assay, H460 cells transfected with α-enolase siRNA; assay type: cell-based, human; settings: for EC50: Homo sapiens
Procedure: To establish the effectiveness of α-enolase silencing on other cancer cell types, H460 non-small cell lung cancer cells were challenged with a chemotherapeutic drug, MTT cytotoxicity assays were carried out and survival curves plotted as shown in FIG. 17.

PC-3 cells = test: MTT cytotoxicity assay, PC-3 cells transfected with α-enolase siRNA; assay type: cell-based; settings: for EC50: Homo sapiens
A549 cells [4] = test: Clonogenic assay, A549 cells; assay type: cell-based, human; settings: A549 cells vs control vectors
[5] = control, read-out: Control (EC50)
[6] = α-enolase specific siRNA, read-out: α-Enolase (EC50)

CC(=O)O[C@H]1C(=O)[C@@]2(C)[C@H]([C@H](OC(=O)c3ccccc3)[C@]3(O)C[C@H](OC(=O)[C@H](O)[C@@H](NC(=O)c4ccccc4)c4ccccc4)C(C)=C1C3(C)C)[C@]1(OC(C)=O)CO[C@@H]1C[C@@H]2O [Taxol]
cytotoxic effect in α-enolase-depleted cells (SKOV3 cells): enhanced cytotoxic effect
EC50 (MDA-435 cells; Eno-1 siRNA, read-out: Eno-1 (EC50)): 0.334 nM
EC50 (MDA-435 cells; Eno-1 stealth siRNA, read-out: Eno-1 ST (EC50)): 0.149 nM
EC50 (MDA-435 cells; control siRNA, read-out: Control (EC50)): 1.1 nM
EC50 (MDA-435 cells; mock transfection, read-out: Mock (EC50)): 0.445 nM
sensitivity of α-enolase-silenced cells (MDA-435 cells): Increases in sensitivity
EC50 (SW-480 cells; [5]): 0.276 nM
EC50 (SW-480 cells; [6]): 0.033 nM
EC50 (MCF-7 cells [1]; Homo sapiens, MCF7, control siRNA, 72 hrs drug, read-out: Control (EC50)): 78.4 nM
IC50 (MCF-7 cells [1]; Homo sapiens, MCF7, from MTT experiments): 100 nM
EC50 (MCF-7 cells [1]; Homo sapiens, MCF7, α-enolase specific siRNA, read-out: α-Enolase (EC50)): 7.16 nM
sensitivity of α-enolase silenced cells (MCF-7 cells [1]): substantial increase in their sensitivity
IC10 (MCF-7 cells [1]; from MTT experiments): 1 nM
EC50 lower in α-enolase-depleted cells vs control siRNA treated cells (MCF-7 cells [1]; on average): 10 fold
chemosensitivity of α-enolase-silenced cells (words) (A549 cells [2]; A549 cells): enhanced chemosensitivity; also recorded: significant shifts in their chemosensitivities
EC50 (A549 cells [2]; A549, read-out: Control (EC50)): 5.94 nM
EC50 (A549 cells [2]; A549, read-out: α-Enolase (EC50)): 3.16 nM
cytotoxicity in α-enolase depleted cells in clonogenic assay (MCF-7 cells [3]): enhanced taxol cytotoxicity
decrease of chemotherapeutic drug resistance by α-enolase-directed siRNA vs mock siRNA (CaOV3 cells): 24.6 fold
EC50 (CaOV3 cells; Caov-3, control, read-out: Control (EC50)): 2.69 nM
EC50 (CaOV3 cells; Caov-3, α-enolase specific RNAi, read-out: α-Enolase (EC50)): 0.11 nM
viability of α-enolase-silenced cells under drug treatment vs control cells (H460 cells): greatest decreases in viability
EC50 (H460 cells; NCI-H460, control, read-out: Control (EC50)): 2.24 nM
EC50 (H460 cells; NCI-H460, α-enolase specific siRNA, read-out: α-Enolase (EC50)): 0.602 nM
enhancement in sensitivity with α-enolase silencing (PC-3 cells): 10 fold
EC50 (PC-3 cells; [5]): 0.199 nM
EC50 (PC-3 cells; [6]): 0.0206 nM
sensitivity of α-enolase siRNA cells in clonogenic assay (A549 cells [4]): more sensitive
